The subject of data set [1] is Staphylococcus aureus. Description: Antimicrobial activity against multi-drug resistant Staphylococcus aureus assessed as reduction in bacterial growth by broth dilution method. The data set is classed as functional.
For data set [2], the system named is Escherichia coli. In words: Antimicrobial activity against Escherichia coli ATCC 25922 assessed as reduction in bacterial growth by broth dilution method. It counts as functional.
Data set [3] relates to Staphylococcus epidermidis. Description: Antimicrobial activity against multi-drug resistant Staphylococcus epidermidis assessed as reduction in bacterial growth by broth dilution method. It counts as functional. Background: Dilution methods test growth across graded concentrations, often in twofold steps.
A further data set deals with Klebsiella pneumoniae. In words: Antimicrobial activity against multi-drug resistant Klebsiella pneumoniae assessed as reduction in bacterial growth by broth dilution method. The data set is classed as functional.
A further data set deals with Enterococcus faecalis. Description: Antimicrobial activity against multi-drug resistant Enterococcus faecalis assessed as reduction in bacterial growth by broth dilution method. The data set is classed as functional.
Data set [4] can be described thus: Hemolytic activity in human Red blood cell assessed as hemolysis incubated for 1 hrs by microplate reader based analysis. The data set is classed as toxicity. To be noted: erythrocyte.
The subject of the next data set is Acinetobacter baumannii. Description: Antimicrobial activity against multi-drug resistant Acinetobacter baumannii assessed as reduction in bacterial growth by broth dilution method. The data set is classed as functional.
The subject of data set [5] is Escherichia coli. In words: Antimicrobial activity against multi-drug resistant Escherichia coli assessed as reduction in bacterial growth by broth dilution method. The data set is classed as functional.
Data set [6] has as its system Staphylococcus aureus. Description: Antimicrobial activity against Staphylococcus aureus ATCC 25923 assessed as reduction in bacterial growth by broth dilution method. It counts as functional.

Molecules are shown by their SMILES. ≈ marks a conversion by molar mass, not a printed value. Peptide text beside a SMILES is read from it.

Usually MIC stands for the least concentration at which growth counts as inhibited. With `NCCCC[C@H](NC(=O)[C@H](Cc1ccccc1)NC(=O)[C@H](CCCCN)NC(=O)[C@H](Cc1ccccc1)NC(=O)[C@H](CCCCN)NC(=O)[C@H](Cc1ccccc1)NC(=O)[C@@H]1CCCN1C(=O)[C@H](Cc1c[nH]c2ccccc12)NC(=O)[C@H](Cc1c[nH]c2ccccc12)NC(=O)[C@H](Cc1c[nH]c2ccccc12)NC(=O)[C@@H]1CCCN1C(=O)[C@H](Cc1ccccc1)NC(=O)[C@H](CCCCN)NC(=O)[C@H](Cc1ccccc1)NC(=O)[C@H](CCCCN)NC(=O)[C@H](Cc1ccccc1)NC(=O)[C@@H](N)CCCCN)C(N)=O` (H-KFKFKFPWWWPFKFKFK-NH2), the MIC came to 8 µM (≈ 19.4 µg/mL) with Staphylococcus aureus [1]; 8 µM (≈ 19.4 µg/mL) in the data set on Escherichia coli [2]; 4 µM (≈ 9.69 µg/mL) in data set [3]; 16 µM (≈ 38.8 µg/mL) in the data set on Klebsiella pneumoniae; 4 µM (≈ 9.69 µg/mL) in the data set with Enterococcus faecalis; 4 µM (≈ 9.69 µg/mL) with Acinetobacter baumannii. In addition, the MIC in the data set with Escherichia coli [5] and with Staphylococcus aureus [6] was 8 µM (≈ 19.4 µg/mL) throughout. Further, the HC10 in data set [4] was 6.39 µM.

As for `CC[C@H](C)[C@H](N)C(=O)N[C@@H](CCCCN)C(=O)N[C@H](C(=O)N[C@@H](CCCCN)C(=O)N[C@H](C(=O)N[C@@H](CCCCN)C(=O)N[C@@H](Cc1ccccc1)C(=O)N1CCC[C@H]1C(=O)N[C@@H](Cc1c[nH]c2ccccc12)C(=O)N[C@@H](Cc1c[nH]c2ccccc12)C(=O)N[C@@H](Cc1c[nH]c2ccccc12)C(=O)N1CCC[C@H]1C(=O)N[C@@H](Cc1ccccc1)C(=O)N[C@@H](CCCCN)C(=O)N[C@H](C(=O)N[C@@H](CCCCN)C(=O)N[C@H](C(=O)N[C@@H](CCCCN)C(=O)N[C@H](C(N)=O)[C@@H](C)CC)[C@@H](C)CC)[C@@H](C)CC)[C@@H](C)CC)[C@@H](C)CC` (H-IKIKIKFPWWWPFKIKIKI-NH2), the MIC in the data set with Staphylococcus aureus [1] was found to be 64 µM (≈ 161 µg/mL); in the data set with Escherichia coli [2], 128 µM (≈ 322 µg/mL); in [3], 128 µM (≈ 322 µg/mL); in the data set on Klebsiella pneumoniae it was 64 µM (≈ 161 µg/mL); in the data set with Enterococcus faecalis it was 128 µM (≈ 322 µg/mL); in the data set with Acinetobacter baumannii, 128 µM (≈ 322 µg/mL). Further, the MIC in the data set on Escherichia coli [5] and in the data set with Staphylococcus aureus [6] was 128 µM (≈ 322 µg/mL) throughout. For the same compound, the HC10 in [4] was 6.56 µM.

With `CC[C@H](C)[C@H](NC(=O)[C@H](CCCCN)NC(=O)[C@@H](NC(=O)[C@H](Cc1ccccc1)NC(=O)[C@@H]1CCCN1C(=O)[C@H](Cc1c[nH]c2ccccc12)NC(=O)[C@H](Cc1c[nH]c2ccccc12)NC(=O)[C@H](Cc1c[nH]c2ccccc12)NC(=O)[C@@H]1CCCN1C(=O)[C@H](Cc1ccccc1)NC(=O)[C@@H](NC(=O)[C@H](CCCCN)NC(=O)[C@@H](NC(=O)[C@@H](N)CCCCN)[C@@H](C)CC)[C@@H](C)CC)[C@@H](C)CC)C(=O)N[C@@H](CCCCN)C(N)=O` (H-KIKIFPWWWPFIKIK-NH2), the MIC was 8 µM (≈ 16.2 µg/mL) in the data set with Staphylococcus aureus [1]; 8 µM (≈ 16.2 µg/mL) in the data set on Escherichia coli [2]; 8 µM (≈ 16.2 µg/mL) in [3]; 256 µM (≈ 520 µg/mL) in the data set with Klebsiella pneumoniae; 16 µM (≈ 32.5 µg/mL) with Enterococcus faecalis; 8 µM (≈ 16.2 µg/mL) with Acinetobacter baumannii. Further, the MIC in the data set with Escherichia coli [5] was determined as 16 µM (≈ 32.5 µg/mL); in the data set on Staphylococcus aureus [6], 8 µM (≈ 16.2 µg/mL). The HC10 in [4] is 4.32 µM.

`CC[C@H](C)[C@H](NC(=O)[C@H](CCCCN)NC(=O)[C@@H](NC(=O)[C@H](CCCCN)NC(=O)[C@@H](NC(=O)[C@H](Cc1ccccc1)NC(=O)[C@@H]1CCCN1C(=O)[C@H](Cc1c[nH]c2ccccc12)NC(=O)[C@H](Cc1c[nH]c2ccccc12)NC(=O)[C@H](Cc1c[nH]c2ccccc12)NC(=O)[C@@H]1CCCN1C(=O)[C@H](Cc1ccccc1)NC(=O)[C@@H](NC(=O)[C@H](CCCCN)NC(=O)[C@@H](NC(=O)[C@H](CCCCN)NC(=O)[C@@H](NC(=O)[C@@H](N)CCCCN)[C@@H](C)CC)[C@@H](C)CC)[C@@H](C)CC)[C@@H](C)CC)[C@@H](C)CC)C(=O)N[C@@H](CCCCN)C(N)=O` (H-KIKIKIFPWWWPFIKIKIK-NH2): the MIC with Staphylococcus aureus [1] was determined as 128 µM (≈ 322 µg/mL); with Escherichia coli [2] it was 128 µM (≈ 322 µg/mL); in [3] it was 128 µM (≈ 322 µg/mL); in the data set with Klebsiella pneumoniae, 64 µM (≈ 161 µg/mL); with Enterococcus faecalis it was 64 µM (≈ 161 µg/mL); with Acinetobacter baumannii it was 128 µM (≈ 322 µg/mL). Also, the MIC in the data set with Escherichia coli [5] and with Staphylococcus aureus [6] was 128 µM (≈ 322 µg/mL) throughout. Further, the HC10 in data set [4] was 7.28 µM.

For `CC(C)[C@H](NC(=O)[C@H](CCCCN)NC(=O)[C@@H](NC(=O)[C@H](CCCCN)NC(=O)[C@@H]1CCCN1C(=O)[C@H](Cc1c[nH]c2ccccc12)NC(=O)[C@H](Cc1c[nH]c2ccccc12)NC(=O)[C@H](Cc1c[nH]c2ccccc12)NC(=O)[C@@H]1CCCN1C(=O)[C@H](CCCCN)NC(=O)[C@@H](NC(=O)[C@H](CCCCN)NC(=O)[C@@H](NC(=O)[C@@H](N)CCCCN)C(C)C)C(C)C)C(C)C)C(=O)N[C@@H](CCCCN)C(N)=O` (H-KVKVKPWWWPKVKVK-NH2), the MIC with Staphylococcus aureus [1] was 64 µM (≈ 124 µg/mL); with Escherichia coli [2], 32 µM (≈ 61.9 µg/mL); in data set [3] it was 32 µM (≈ 61.9 µg/mL); in the data set on Klebsiella pneumoniae it was 32 µM (≈ 61.9 µg/mL); in the data set on Enterococcus faecalis, 32 µM (≈ 61.9 µg/mL); with Acinetobacter baumannii, 64 µM (≈ 124 µg/mL). Further, the MIC with Escherichia coli [5] worked out at 32 µM (≈ 61.9 µg/mL); with Staphylococcus aureus [6] it was 64 µM (≈ 124 µg/mL). The HC10 in data set [4] is above 256 µM.

`NCCCC[C@H](NC(=O)[C@H](Cc1c[nH]c2ccccc12)NC(=O)[C@H](CCCCN)NC(=O)[C@H](Cc1c[nH]c2ccccc12)NC(=O)[C@H](Cc1ccccc1)NC(=O)[C@@H]1CCCN1C(=O)[C@H](Cc1c[nH]c2ccccc12)NC(=O)[C@H](Cc1c[nH]c2ccccc12)NC(=O)[C@H](Cc1c[nH]c2ccccc12)NC(=O)[C@@H]1CCCN1C(=O)[C@H](Cc1ccccc1)NC(=O)[C@H](Cc1c[nH]c2ccccc12)NC(=O)[C@H](CCCCN)NC(=O)[C@H](Cc1c[nH]c2ccccc12)NC(=O)[C@@H](N)CCCCN)C(N)=O` (H-KWKWFPWWWPFWKWK-NH2): the MIC with Staphylococcus aureus [1] turned out to be 4 µM (≈ 9.29 µg/mL); in the data set on Escherichia coli [2] it was 32 µM (≈ 74.3 µg/mL); in [3] it was 16 µM (≈ 37.1 µg/mL); in the data set with Klebsiella pneumoniae, 256 µM (≈ 594 µg/mL); in the data set with Enterococcus faecalis, 16 µM (≈ 37.1 µg/mL); in the data set on Acinetobacter baumannii, 64 µM (≈ 149 µg/mL). The MIC in the data set on Escherichia coli [5] was determined as 64 µM (≈ 149 µg/mL); with Staphylococcus aureus [6] it was 4 µM (≈ 9.29 µg/mL). The HC10 in [4] turned out to be 7.46 µM.

Regarding `CC[C@H](C)[C@H](NC(=O)[C@H](CCCCN)NC(=O)[C@@H](NC(=O)[C@H](CCCCN)NC(=O)[C@H](Cc1ccccc1)NC(=O)[C@@H]1CCCN1C(=O)[C@H](Cc1c[nH]c2ccccc12)NC(=O)[C@H](Cc1c[nH]c2ccccc12)NC(=O)[C@H](Cc1c[nH]c2ccccc12)NC(=O)[C@@H]1CCCN1C(=O)[C@H](Cc1ccccc1)NC(=O)[C@H](CCCCN)NC(=O)[C@@H](NC(=O)[C@H](CCCCN)NC(=O)[C@@H](NC(=O)[C@@H](N)CCCCN)[C@@H](C)CC)[C@@H](C)CC)[C@@H](C)CC)C(=O)N[C@@H](CCCCN)C(N)=O` (H-KIKIKFPWWWPFKIKIK-NH2), the MIC in the data set with Staphylococcus aureus [1] stood at 4 µM (≈ 9.14 µg/mL); with Escherichia coli [2], 16 µM (≈ 36.6 µg/mL); in data set [3] it was 8 µM (≈ 18.3 µg/mL); in the data set with Klebsiella pneumoniae, 32 µM (≈ 73.2 µg/mL); in the data set on Enterococcus faecalis it was 4 µM (≈ 9.14 µg/mL); with Acinetobacter baumannii, 8 µM (≈ 18.3 µg/mL). Besides, the MIC came to 8 µM (≈ 18.3 µg/mL) in the data set with Escherichia coli [5] and 4 µM (≈ 9.14 µg/mL) in the data set on Staphylococcus aureus [6]. In data set [4], the HC10 came out at 29.44 µM.

The values above are taken from ChEMBL document CHEMBL6134890, “Terminally Symmetric β-Turn Peptides for Multidrug-Resistant Bacterial Infections” (J Med Chem, 2025).
